Results reported in patent US7205403B2, “8-Heteroaryl xanthine adenosine A2B receptor antagonists” (King Pharmaceuticals Research and Development, Inc., priority 2002, dated 2007).
“Also recorded” adds a separate entry of the source. Like-named read-outs stand apart in the source and are kept apart here.

How the values were obtained:
[1] = target: T1, human A3 adenosine receptor (Homo sapiens, UniProt P0DMS8); assay: [3H]MRE3008F20 binding to human A3 receptors expressed in CHO cells; conditions: for Ki, [3H]MRE3008F20 binding to human A3 receptors expressed in CHO cells: geometric mean (95% confidence interval), >1000 = no appreciable binding
T1 construct: expressed in transfected cells; host or cells: CHO cells (membranes)
T1 sequence (P0DMS8 1-318): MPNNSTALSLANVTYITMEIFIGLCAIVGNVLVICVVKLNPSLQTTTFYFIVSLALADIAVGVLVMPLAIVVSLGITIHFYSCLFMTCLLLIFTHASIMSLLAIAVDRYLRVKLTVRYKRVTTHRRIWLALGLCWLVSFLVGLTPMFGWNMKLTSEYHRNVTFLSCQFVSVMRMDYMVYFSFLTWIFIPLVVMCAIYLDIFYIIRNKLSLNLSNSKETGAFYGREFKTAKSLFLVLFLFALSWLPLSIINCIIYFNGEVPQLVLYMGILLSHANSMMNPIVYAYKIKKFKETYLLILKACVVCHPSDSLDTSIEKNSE
Method in brief: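 CHO cell membranes (50 μg protein) competed against 1 nM [3H]-MRE3008-F20 in 50 mM Tris HCl, MgCl2, pH 7.4, with 6–8 ligand concentrations in duplicate, 120 minutes at 4° C. Filter-bound radioactivity counted by scintillation; inhibitory binding constants derived.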

[2] = target: T2, human A2B adenosine receptor (Homo sapiens, UniProt P29275); assay: [3H]DPCPX binding to human A2B receptors expressed in HEK293 cells; parameters: host or cells: HEK 293 cells (membranes)
T2 sequence (P29275 1-332): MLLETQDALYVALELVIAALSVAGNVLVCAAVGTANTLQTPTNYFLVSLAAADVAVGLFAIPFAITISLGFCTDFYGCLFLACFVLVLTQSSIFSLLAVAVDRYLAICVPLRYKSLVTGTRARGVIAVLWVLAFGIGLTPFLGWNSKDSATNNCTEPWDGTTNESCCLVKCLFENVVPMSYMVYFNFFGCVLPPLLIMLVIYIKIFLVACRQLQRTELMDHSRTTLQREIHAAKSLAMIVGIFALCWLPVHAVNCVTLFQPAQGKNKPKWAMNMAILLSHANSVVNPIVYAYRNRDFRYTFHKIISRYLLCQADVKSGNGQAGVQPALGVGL
Method in brief: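 Membranes (20 μg protein) from HEK293 cells expressing recombinant human A2B receptor were incubated 60 min at 25° C with 40 nM [3H]-DPCPX and 6–8 compound concentrations. Buffer was Tris-HCl with MgCl2, 1 mM EDTA, 0.1 mM benzamidine and 2 IU/ml adenosine deaminase, pH 7.4. Filter-bound radioactivity gave the inhibitory binding constant.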

[3] = target: T3, human A2A adenosine receptor (Homo sapiens, UniProt P29274); assay: [3H]ZM241385 binding to human A2A receptors expressed in CHO cells; conditions: for Ki, [3H]ZM241385 binding to human A2A receptors expressed in CHO cells: geometric mean (95% confidence interval), >1000 = no appreciable binding
T3 construct: expressed in transfected cells; host or cells: CHO cells (membranes)
T3 sequence (P29274 whole entry): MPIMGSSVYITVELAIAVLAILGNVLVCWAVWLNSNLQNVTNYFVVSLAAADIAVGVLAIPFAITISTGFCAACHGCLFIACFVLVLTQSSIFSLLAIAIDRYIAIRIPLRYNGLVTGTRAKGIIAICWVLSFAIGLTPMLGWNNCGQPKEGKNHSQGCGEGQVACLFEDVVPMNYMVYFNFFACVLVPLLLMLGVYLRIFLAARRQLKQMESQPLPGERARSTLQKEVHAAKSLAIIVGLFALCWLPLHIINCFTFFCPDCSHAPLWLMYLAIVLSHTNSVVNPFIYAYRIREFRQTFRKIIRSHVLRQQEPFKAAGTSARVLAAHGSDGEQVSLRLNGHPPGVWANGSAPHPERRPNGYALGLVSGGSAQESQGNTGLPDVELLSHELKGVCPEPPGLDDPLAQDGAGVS
Method in brief: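 Membranes from adherent CHO cells, resuspended in 50 mM Tris HCl with 10 mM MgCl2, pH 7.4. The inhibitory binding constant is reported.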

[4] = target: T2, human A2B adenosine receptor; assay: Cyclic AMP assay, antagonism of NECA-stimulated cAMP in CHO cells transfected with human A2B receptors; format: cell-based
Method: Measurement of cyclic AMP (CAMP) levels in CHO cells transfected with human A2B adenosine receptors was performed in the following manner. CHO cells transfected with human A2B adenosine receptors were washed with phosphate-buffered saline, diluted tripsine and centrifuged for 10 minutes at 200 g.
The reaction was terminated by the addition of cold 6% thrichloroacetic acid (TCA). The TCA suspension was centrifuged at 2000 g for 10 minutes at 4° C. and the supernatant was extracted four times with water saturated diethyl ether. The final aqueous, solution was tested for cAMP levels by a competition protein binding assay. Samples of cAMP standard (0–10 pmoles) were added to each test tube containing the incubation buffer (trizma base 0.1 M, aminophylline 8.0 mM, 2-mercaptoethanol 6.0 mM, pH 7.4) and [H^3]-cAMP in a total volume of 0.5 ml. The binding protein previously prepared from beef adrenals, was added to the samples previously incubated at 4° C. for 150 minutes, and after the addition of charcoal were centrifuged at 2000 g for 10 minutes. The clear supernatant was counted in a Beckman scintillation counter.
Finally, to evaluate the regulation of adenylyl cyclase activity and to test whether the binding parameters correlated with the functional response, the IC50 values were obtained for inhibition of cAMP production by antagonists. In particular, we evaluated the capability of the several compounds to inhibit NECA (100 nM)-stimulated cyclic AMP accumulation.

[5] = target: T4, human A1 adenosine receptor (Homo sapiens, UniProt P30542); assay: [3H]DPCPX binding to human A1 receptors expressed in CHO cells
T4 construct: expressed in transfected cells; host or cells: CHO cells (membranes)
T4 sequence (P30542 1-326): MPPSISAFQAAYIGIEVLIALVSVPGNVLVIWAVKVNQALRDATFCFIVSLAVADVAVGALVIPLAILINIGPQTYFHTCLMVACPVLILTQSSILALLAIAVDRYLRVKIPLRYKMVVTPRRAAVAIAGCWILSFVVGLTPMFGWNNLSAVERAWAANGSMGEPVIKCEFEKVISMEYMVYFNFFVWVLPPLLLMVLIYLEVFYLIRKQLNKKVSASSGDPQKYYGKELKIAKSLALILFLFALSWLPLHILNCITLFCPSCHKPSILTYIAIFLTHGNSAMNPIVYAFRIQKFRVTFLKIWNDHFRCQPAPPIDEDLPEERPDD

[6] = Table 2, geometric mean (95% confidence limits), at least three experiments in duplicate, read-out: [3H]-DPCPX binding to human A2B receptors in HEK 293 cells Ki
[7] = geometric mean (95% confidence interval), >1000 = no appreciable binding, read-out: Ki, [3H]DPCPX binding to human A2B receptors expressed in HEK293 cells
[8] = read-out: Ki, [3H]ZM241385 binding to human A2A receptors expressed in CHO cells
[9] = inhibition of NECA (100 nM)-stimulated cAMP, geometric mean (95% confidence limits)
[10] = geometric mean (95% confidence interval), >1000 = no appreciable binding

Row | SMILES | Ki [1] [nM] | Ki [2, 6] [nM] | Ki [2, 7] [nM] | Ki [3, 8] [nM] | IC50 [4, 9] [nM] | Ki [5, 10] [nM] | Ki, [3H]MRE3008F20 binding to human A3 receptors expressed in CHO cells [1] | Ki, [3H]ZM241385 binding to human A2A receptors expressed in CHO cells [3] | Ki, [3H]DPCPX binding to human A1 receptors expressed in CHO cells [5, 10] | Ki [3] [nM] | IC50 [4] [nM] | Ki [5] [nM]
1 | CCCn1c(=O)c2[nH]c(-c3cc(NC(=O)Cc4ccc(OCc5ccccc5C(F)(F)F)cc4)nn3C)nc2n(CCC)c1=O [AS29, N-[5-(2,6-dioxo-1,3-dipropyl-2,3,6,9-tetrahydro-1H-purin-8-yl)-1-methyl-1H-pyrazol-3-yl]-2-(4-{[2-(trifluoromethyl)benzyl]oxy}phenyl)acetamide] | > 1000 | 13 | 13 | > 1000 | 93 | 56 | – | – | – | – | – | –
2 | CCCn1c(=O)c2[nH]c(-c3cc(NC(=O)Cc4ccc(Cl)cc4)nn3C)nc2n(CCC)c1=O [AS27, N-[5-(2,6-dioxo-1,3-dipropyl-2,3,6,9-tetrahydro-1H-purin-8-yl)-1-methyl-1H-pyrazol-3-yl]-2-(4-chlorophenyl)acetamide] | > 1000 | 28 | 28 | > 1000 | 128 | 520 | – | – | – | – | – | –
3 | CCCn1c(=O)c2[nH]c(-c3cc(OCC(=O)Nc4ccc(Br)cc4)nn3C)nc2n(CCC)c1=O [AS65, 2-{[5-(2,6-dioxo-1,3-dipropyl-2,3,6,9-tetrahydro-1H-purin-8-yl)-1-methyl-1H-pyrazol-3-yl]oxy}-N-(4-bromophenyl)acetamide] | > 1000 | 20 | 20 | > 1000 | 108 | 150 | – | – | – | – | – | –
4 | CCCn1c(=O)c2[nH]c(-c3cc(NC(=O)Cc4ccccc4)n(C)n3)nc2n(CCC)c1=O [AS35] | – | 34 | 34 | – | 152 | – | – | – | – | – | – | –
5 | CCCn1c(=O)c2[nH]c(-c3cc(NC(=O)Cc4ccc(OC)c(OC)c4)nn3C)nc2n(CCC)c1=O [AS28, 2-(3,4-dimethoxyphenyl)-N-[5-(2,6-dioxo-1,3-dipropyl-2,3,6,9-tetrahydro-1H-purin-8-yl)-1-methyl-1H-pyrazol-3-yl]acetamide] | > 1000 | 38 | 38 | > 1000 | 120 | – | no appreciable binding; also recorded: without significant binding | no appreciable binding; also recorded: without significant binding | no appreciable binding; also recorded: without significant binding | – | – | –
6 | CCCn1c(=O)c2[nH]c(-c3cc(NC(=O)Cc4ccccc4)nn3C)nc2n(CCC)c1=O [AS11, N-[5-(2,6-dioxo-1,3-dipropyl-2,3,6,9-tetrahydro-1H-purin-8-yl)-1-methyl-1H-pyrazol-3-yl]-2-phenylacetamide] | > 1000 | 35 | 35 | > 1000 | 103 | 900 | – | – | – | – | – | –
7 | CCCn1c(=O)c2[nH]c(-c3cc(NC(=O)Cc4ccc5c(c4)OCO5)nn3C)nc2n(CCC)c1=O [AS57, 2-(1,3-benzodioxol-5-yl)-N-[5-(2,6-dioxo-1,3-dipropyl-2,3,6,9-tetrahydro-1H-purin-8-yl)-1-methyl-1H-pyrazol-3-yl]acetamide] | > 1000 | 18 | 18 | – | 95 | 566 | – | – | – | 1250 | – | –
8 | CCCn1c(=O)c2[nH]c(-c3cc(NC(=O)Nc4cccc(Cl)c4)nn3C)nc2n(CCC)c1=O [AS54, N-(3-chlorophenyl)-N'-[5-(2,6-dioxo-1,3-dipropyl-2,3,6,7-tetrahydro-1H-purin-8-yl)-1-methyl-1H-pyrazol-3-yl]urea] | > 1000 | 39 | 39 | > 1000 | – | 448 | – | – | – | – | 136 | –
9 | CCCn1c(=O)c2[nH]c(-c3cc(NC(=O)Cc4ccc(OCc5ccccc5)c(OC)c4)nn3C)nc2n(CCC)c1=O [AS56, 2-[4-(benzyloxy)-3-methoxyphenyl]-N-[5-(2,6-dioxo-1,3-dipropyl-2,3,6,9-tetrahydro-1H-purin-8-yl)-1-methyl-1H-pyrazol-3-yl]acetamide] | > 1000 | – | 100 | 2430 | – | – | – | – | – | – | – | 1790
10 | CCCn1c(=O)c2[nH]c(-c3cc(OCC(=O)Nc4ccc(C(C)=O)cc4)nn3C)nc2n(CCC)c1=O [AS69] | – | – | 86 | – | – | – | without significant binding | without significant binding | without significant binding | – | – | –
11 | CCCn1c(=O)c2[nH]c(-c3cc(NC(=O)COc4ccc(Cl)cc4)nn3C)nc2n(CCC)c1=O [AS21, 2-(4-chlorophenoxy)-N-[5-(1,3-dipropyl-2,6-dioxo-2,3,6,7-tetrahydro-1H-purin-8-yl)-1-methyl-1H-pyrazol-3-yl]acetamide] | > 1000 | – | > 1000 | > 1000 | – | – | – | – | – | – | – | > 1000
12 | CCCn1c(=O)c2[nH]c(-c3cc(NC(=O)Cc4ccc(C(F)(F)F)cc4)nn3C)nc2n(CCC)c1=O [AS32, N-[5-(2,6-dioxo-1,3-dipropyl-2,3,6,9-tetrahydro-1H-purin-8-yl)-1-methyl-1H-pyrazol-3-yl]-2-[4-(trifluoromethyl)phenyl]acetamide] | > 1000 | – | 190 | > 1000 | – | 746 | – | – | – | – | – | –
13 | CCCn1c(=O)c2[nH]c(-c3cc(OCC(=O)Nc4ccc(C)cc4)nn3C)nc2n(CCC)c1=O [AS92] | > 1000 | – | 19 | > 1000 | – | 79 | – | – | – | – | – | –
